In PubChem BioAssay AID504328 (The Scripps Research Institute Molecular Screening Center, 2011) one finds EC50 data, which are given here for one molecule.

Calls of active or inactive are those of the source.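 How the source made its calls: active means EC50 at or below 10 µM; inactive means EC50 above 10 µM.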

This test deals with Caspase-3 (Homo sapiens) (UniProt P42574). Kind of test: activators of human procaspase-3 D3A mutant – biochemical, absorbance, PC-3 D3A mutant, counter-screen for dual procaspase-3/7 activator project, dose response (AID 504328). Particulars: recombinant PC-3 D3A, Ac-DEVD-pNA absorbance 405 nm. For orientation: Counterscreens check selectivity or assay interference.
Sequence of Caspase-3 (Homo sapiens) (P42574 whole entry D9A/D28A/D175A): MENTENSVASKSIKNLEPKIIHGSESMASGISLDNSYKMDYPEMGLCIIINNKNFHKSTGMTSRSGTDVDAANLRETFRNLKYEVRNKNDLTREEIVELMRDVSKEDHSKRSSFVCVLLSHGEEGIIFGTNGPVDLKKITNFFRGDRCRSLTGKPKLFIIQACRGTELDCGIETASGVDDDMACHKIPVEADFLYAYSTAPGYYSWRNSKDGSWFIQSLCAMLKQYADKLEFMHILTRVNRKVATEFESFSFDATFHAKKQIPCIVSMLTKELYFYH

One may read the EC50 as the concentration that produces a half-maximal response. For `CCOc1ccc(N=CC2=C(O)CC(c3ccco3)CC2=O)cc1` (stereo unspecified), the EC50 was > 85.3 µM (inactive).
